From ChEMBL document CHEMBL1208782, “Synthesis and pharmacological validation of a novel series of non-steroidal FXR agonists” (Bioorg Med Chem Lett, 2010)

Assays:
Androgen receptor = biological target: T1, Androgen receptor (Homo sapiens, UniProt P10275); experiment: Agonist activity at androgen receptor-LBD expressed in HEK293 cells assessed as Gal4-DBD interaction by cellular mammalian one hybrid assay; type: functional, cell-based
T1 sequence (P10275 whole entry): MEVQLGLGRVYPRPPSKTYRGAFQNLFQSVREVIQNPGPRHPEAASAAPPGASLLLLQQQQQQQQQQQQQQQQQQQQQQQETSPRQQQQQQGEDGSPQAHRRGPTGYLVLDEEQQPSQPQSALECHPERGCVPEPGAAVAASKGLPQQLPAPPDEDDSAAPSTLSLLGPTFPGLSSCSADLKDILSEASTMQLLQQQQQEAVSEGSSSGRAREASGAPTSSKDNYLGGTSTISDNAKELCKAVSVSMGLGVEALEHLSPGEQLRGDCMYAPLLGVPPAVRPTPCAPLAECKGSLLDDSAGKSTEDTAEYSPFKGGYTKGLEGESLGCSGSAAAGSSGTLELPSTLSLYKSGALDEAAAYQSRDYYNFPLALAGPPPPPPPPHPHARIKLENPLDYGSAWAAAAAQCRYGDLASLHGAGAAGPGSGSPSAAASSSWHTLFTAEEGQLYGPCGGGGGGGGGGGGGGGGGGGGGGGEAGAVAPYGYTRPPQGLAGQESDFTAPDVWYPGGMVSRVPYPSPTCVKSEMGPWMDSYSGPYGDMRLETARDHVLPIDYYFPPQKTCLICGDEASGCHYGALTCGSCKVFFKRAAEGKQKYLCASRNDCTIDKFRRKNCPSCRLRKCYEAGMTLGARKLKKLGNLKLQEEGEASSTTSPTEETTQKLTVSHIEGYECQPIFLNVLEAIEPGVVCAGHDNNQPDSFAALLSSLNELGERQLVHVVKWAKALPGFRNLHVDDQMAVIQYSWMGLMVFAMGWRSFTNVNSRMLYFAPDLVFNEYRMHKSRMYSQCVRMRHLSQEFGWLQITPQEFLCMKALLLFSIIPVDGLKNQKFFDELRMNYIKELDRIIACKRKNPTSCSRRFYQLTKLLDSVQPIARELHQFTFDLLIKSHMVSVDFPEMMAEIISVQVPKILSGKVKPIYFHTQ

[1] = biological target: T2, Bile acid receptor (Homo sapiens) (UniProt Q96RI1); experiment: Agonist activity at human GST-fused FXR LBD assessed as cofactor peptide interaction with receptor ligand binding domain by FRET assay relative to GW-4064
T2 sequence (whole entry): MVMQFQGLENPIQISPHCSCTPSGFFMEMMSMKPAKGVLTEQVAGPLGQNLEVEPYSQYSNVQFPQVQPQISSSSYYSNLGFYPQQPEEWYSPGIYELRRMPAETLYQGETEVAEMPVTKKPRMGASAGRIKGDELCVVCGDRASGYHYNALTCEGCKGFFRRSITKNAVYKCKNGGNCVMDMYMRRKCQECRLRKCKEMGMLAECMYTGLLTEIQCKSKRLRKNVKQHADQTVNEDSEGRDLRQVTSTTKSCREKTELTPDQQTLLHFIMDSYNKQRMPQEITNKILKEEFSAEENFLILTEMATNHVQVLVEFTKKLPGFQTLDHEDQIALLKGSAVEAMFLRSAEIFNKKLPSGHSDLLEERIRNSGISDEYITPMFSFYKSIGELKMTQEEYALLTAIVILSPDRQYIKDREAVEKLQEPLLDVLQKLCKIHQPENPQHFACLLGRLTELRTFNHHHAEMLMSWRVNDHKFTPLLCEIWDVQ

[2] = biological target: T3, Estrogen receptor (Homo sapiens) (UniProt P03372); experiment: Agonist activity at ERalpha-LBD expressed in HEK293 cells assessed as Gal4-DBD interaction by cellular mammalian one hybrid assay relative to 17-beta-estradiol; type: functional, cell-based
T3 sequence (whole entry): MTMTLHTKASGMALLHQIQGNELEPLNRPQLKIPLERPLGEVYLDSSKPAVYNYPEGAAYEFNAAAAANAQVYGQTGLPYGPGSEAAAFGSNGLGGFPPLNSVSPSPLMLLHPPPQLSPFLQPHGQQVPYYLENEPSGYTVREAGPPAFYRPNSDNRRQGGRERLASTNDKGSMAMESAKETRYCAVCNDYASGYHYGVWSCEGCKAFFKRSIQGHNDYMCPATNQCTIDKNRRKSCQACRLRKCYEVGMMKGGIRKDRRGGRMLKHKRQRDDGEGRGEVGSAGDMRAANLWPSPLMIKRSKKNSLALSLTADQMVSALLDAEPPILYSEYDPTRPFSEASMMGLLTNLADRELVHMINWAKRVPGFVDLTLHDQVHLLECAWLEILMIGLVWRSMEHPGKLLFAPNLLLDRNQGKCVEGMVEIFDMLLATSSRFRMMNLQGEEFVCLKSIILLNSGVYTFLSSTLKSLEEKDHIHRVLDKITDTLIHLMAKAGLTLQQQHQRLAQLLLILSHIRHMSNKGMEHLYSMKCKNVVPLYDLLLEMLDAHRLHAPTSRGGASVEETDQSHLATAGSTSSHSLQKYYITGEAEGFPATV

[3] = biological target: T4, Vitamin D3 receptor (Homo sapiens) (UniProt P11473); experiment: Agonist activity at VDR-LBD expressed in HEK293 cells assessed as Gal4-DBD interaction by cellular mammalian one hybrid assay relative to vitamin D; type: functional, cell-based
T4 sequence (whole entry): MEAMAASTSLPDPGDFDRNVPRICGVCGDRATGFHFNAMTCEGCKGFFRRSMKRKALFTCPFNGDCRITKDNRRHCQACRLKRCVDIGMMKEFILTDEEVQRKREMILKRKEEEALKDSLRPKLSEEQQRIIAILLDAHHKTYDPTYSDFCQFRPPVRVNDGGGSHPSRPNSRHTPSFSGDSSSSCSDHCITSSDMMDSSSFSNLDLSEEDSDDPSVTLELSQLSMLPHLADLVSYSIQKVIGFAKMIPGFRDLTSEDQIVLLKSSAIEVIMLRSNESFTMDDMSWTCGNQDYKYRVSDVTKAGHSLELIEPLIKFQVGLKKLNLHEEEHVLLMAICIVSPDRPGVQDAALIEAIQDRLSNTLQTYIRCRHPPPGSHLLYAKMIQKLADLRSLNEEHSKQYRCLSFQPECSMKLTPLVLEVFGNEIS

| SMILES | EC50 (Androgen receptor) [µM] | Efficacy [1] [%] | Efficacy [2] [%] | Efficacy [3] [%] |
| --- | --- | --- | --- | --- |
| CN(Cc1cccc(C(=O)O)c1)c1ccc(OCc2c(-c3c(Cl)cccc3Cl)noc2C2CC2)nc1C(F)(F)F | > 10 | 102 | 24 | 0 |
| CN(Cc1ccc(C(=O)O)cc1)c1ccc(OCc2c(-c3c(Cl)cccc3Cl)noc2C2CC2)nc1C(F)(F)F | > 10 | 109 | 0 | 0 |
| CC(C)c1onc(-c2c(Cl)cccc2Cl)c1COc1ccc(N(C)Cc2ccc(C(=O)O)cc2)c(C(F)(F)F)n1 | > 10 | 97 | 0 | 0 |
